Results from patent publication US6737383B1, “Herbicidal oxadiazolidines” (priority 1999, dated 2004).

Legend:
[1] = test system: wild oat; test: Test B pre/postemergence wild oat; format: in vivo, Avena fatua
Summary of the method: (§1)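 Response is a visual 0-to-10 score relative to untreated plants, where 0 means no effect and 10 means complete control, taken twelve to sixteen days after application. Treatments went onto soil at planting and onto foliage of 1- to 4-leaf plants, using a surfactant-containing non-phytotoxic solvent.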

[2] = test system: soybean; test: Test B pre/postemergence soybean; format: in vivo, Glycine max
Summary of the method: as §1

[3] = test system: bamyardgrass; test: Test B flood test barnyardgrass; format: in vivo, Echinochloa crus-galli
Summary of the method: (§2)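 Each value is a visual injury score relative to controls, with 10 meaning complete control and 0 no effect. Evaluation took place twelve to sixteen days after the 2-leaf-stage plants were treated and kept in the greenhouse.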

[4] = test system: velvetleaf; test: Test B pre/postemergence velvetleaf; format: in vivo, Abutilon theophrasti
Summary of the method: as §1

[5] = test system: rape; test: Test B pre/postemergence rape; format: in vivo, Brassica napus
Summary of the method: as §1

[6] = test system: smallflower flatsedge; test: Test B flood test smallflower flatsedge; format: in vivo, Cyperus difformis
Summary of the method: as §2

[7] = test system: pigweed; test: Test B pre/postemergence pigweed; format: in vivo, Amaranthus retroflexus
Summary of the method: as §1

[8] = test system: giant foxtail; test: Test B pre/postemergence giant foxtail; format: in vivo, Setaria faberii
Summary of the method: as §1

[9] = test system: corn; test: Test B pre/postemergence corn; format: in vivo, Zea mays
Summary of the method: as §1

[10] = test system: morningglory; test: Test B pre/postemergence morningglory; format: in vivo, Ipomoea hederacea
Summary of the method: as §1

[11] = test system: cocklebur; test: Test B pre/postemergence cocklebur; format: in vivo, Xanthium strumarium
Summary of the method: as §1

[12] = test system: surinam grass; test: Test B pre/postemergence surinam grass; format: in vivo, Brachiaria decumbens
Summary of the method: as §1

[13] = test system: wheat; test: Test B pre/postemergence wheat; format: in vivo, Triticum aestivum
Summary of the method: as §1

[14] = test system: duck salad; test: Test B flood test duck salad; format: in vivo, Heteranthera limosa
Summary of the method: as §2

[15] = test system: rice; test: Test B flood test rice; format: in vivo, Oryza sativa
Summary of the method: as §2

[16] = test system: sugar beet; test: Test B pre/postemergence sugar beet; format: in vivo, Beta vulgaris
Summary of the method: as §1

[17] = Preemergence, Rate 62 g/ha, scale of 0 to 10 where 0 is no effect and 10 is complete control
[18] = Preemergence, Rate 250 g/ha, scale of 0 to 10 where 0 is no effect and 10 is complete control
[19] = Preemergence, Rate 500 g/ha, scale of 0 to 10 where 0 is no effect and 10 is complete control
[20] = Rate 62 g/ha, Postemergence, scale 0 to 10 (0 no effect, 10 complete control)
[21] = Rate 125 g/ha, Postemergence, scale of 0 to 10 where 0 is no effect and 10 is complete control
[22] = Rate 250 g/ha, Postemergence, scale of 0 to 10 where 0 is no effect and 10 is complete control
[23] = Rate 500 g/ha, Postemergence, scale 0 to 10, 0 no effect, 10 complete control
[24] = Rate 125 g/ha, Preemergence, scale of 0 to 10 where 0 is no effect and 10 is complete control
[25] = Rate 62 g/ha, headed Pre-emergence (flood test species), scale 0 to 10 (0 no effect, 10 complete control)
[26] = Rate 125 g/ha, Pre-emergence, flood test species, scale 0 to 10 where 0 is no effect and 10 is complete control
[27] = Rate 250 g/ha, Pre-emergence, flood-test species, scale 0 to 10, 0 is no effect, 10 is complete control
[28] = Rate 500 g/ha, Pre-emergence, flood test species, scale 0 to 10 (0 no effect, 10 complete control)

Cc1ccccc1-n1c(=O)on(C(=O)N(c2ccc3c(c2)CCC3)C(C)C)c1=O [Compound 278]
Wild oats plant response rating [1, 17]: 0 | Wild oats plant response rating [1, 18]: 0 | Plant response rating, Wild oats [1, 19]: 0 | Wild oats plant response rating [1, 20]: 0 | Wild oats plant response rating [1, 21]: 0 | Plant response rating, Wild oats [1, 22]: 0 | Wild oats plant response rating [1, 23]: 0 | Soybean plant response rating [2, 17]: 0 | Soybean plant response rating [2, 18]: 0 | Plant response rating, Soybean [2, 19]: 0 | Soybean plant response rating [2, 20]: 1 | Soybean plant response rating [2, 21]: 1 | Soybean plant response rating [2, 24]: 0 | Plant response rating, Soybean [2, 22]: 1 | Soybean plant response rating [2, 23]: 1 | Barnyardgrass plant response rating [3, 25]: 0 | Barnyardgrass plant response rating [3, 26]: 0 | Barnyardgrass plant response rating [3, 27]: 0 | Barnyardgrass plant response rating [3, 28]: 0 | Velvetleaf plant response rating [4, 17]: 0 | Velvetleaf plant response rating [4, 18]: 0 | Plant response rating, Velvetleaf [4, 19]: 0 | Velvetleaf plant response rating [4, 20]: 0 | Velvetleaf plant response rating [4, 21]: 0 | Velvetleaf plant response rating [4, 24]: 0 | Plant response rating, Velvetleaf [4, 22]: 0 | Velvetleaf plant response rating [4, 23]: 2 | Rape plant response rating [5, 17]: 0 | Rape plant response rating [5, 18]: 0 | Plant response rating, Rape [5, 19]: 0 | Rape plant response rating [5, 20]: 0 | Rape plant response rating [5, 21]: 0 | Rape plant response rating [5, 24]: 0 | Plant response rating, Rape [5, 22]: 0 | Rape plant response rating [5, 23]: 0 | S. Flatsedge plant response rating [6, 25]: 0 | S. Flatsedge plant response rating [6, 26]: 0 | S. Flatsedge plant response rating [6, 27]: 0 | S. Flatsedge plant response rating [6, 28]: 0 | Redroot pigweed plant response rating [7, 17]: 0 | Redroot pigweed plant response rating [7, 18]: 0 | Plant response rating, Redroot pigweed [7, 19]: 0 | Redroot pigweed plant response rating [7, 20]: 0 | Redroot pigweed plant response rating [7, 21]: 0 | Redroot pigweed plant response rating [7, 24]: 0 | Plant response rating, Redroot pigweed [7, 22]: 0 | Redroot pigweed plant response rating [7, 23]: 4 | Giant foxtail plant response rating [8, 17]: 0 | Giant foxtail plant response rating [8, 18]: 2 | Plant response rating, Giant foxtail [8, 19]: 8 | Giant foxtail plant response rating [8, 20]: 0 | Giant foxtail plant response rating [8, 21]: 0 | Giant foxtail plant response rating [8, 24]: 2 | Plant response rating, Giant foxtail [8, 22]: 0 | Giant foxtail plant response rating [8, 23]: 0 | Corn plant response rating [9, 17]: 0 | Corn plant response rating [9, 18]: 0 | Plant response rating, Corn [9, 19]: 0 | Corn plant response rating [9, 20]: 0 | Corn plant response rating [9, 21]: 0 | Corn plant response rating [9, 24]: 0 | Plant response rating, Corn [9, 22]: 0 | Corn plant response rating [9, 23]: 0 | Morningglory plant response rating [10, 17]: 0 | Morningglory plant response rating [10, 18]: 0 | Plant response rating, Morningglory [10, 19]: 0 | Morningglory plant response rating [10, 20]: 3 | Morningglory plant response rating [10, 21]: 3 | Morningglory plant response rating [10, 24]: 0 | Plant response rating, Morningglory [10, 22]: 4 | Morningglory plant response rating [10, 23]: 4 | Cocklebur plant response rating [11, 17]: 0 | Cocklebur plant response rating [11, 18]: 0 | Plant response rating, Cocklebur [11, 19]: 0 | Cocklebur plant response rating [11, 20]: 0 | Cocklebur plant response rating [11, 21]: 0 | Cocklebur plant response rating [11, 24]: 0 | Plant response rating, Cocklebur [11, 22]: 0 | Cocklebur plant response rating [11, 23]: 3 | B. signalgrass plant response rating [12, 17]: 0 | B. signalgrass plant response rating [12, 18]: 0 | Plant response rating, B. signalgrass [12, 19]: 0 | B. signalgrass plant response rating [12, 20]: 0 | B. signalgrass plant response rating [12, 21]: 0 | B. signalgrass plant response rating [12, 24]: 0 | Plant response rating, B. signalgrass [12, 22]: 0 | B. signalgrass plant response rating [12, 23]: 0 | Wheat plant response rating [13, 17]: 0 | Wheat plant response rating [13, 18]: 0 | Plant response rating, Wheat [13, 19]: 0 | Wheat plant response rating [13, 20]: 0 | Wheat plant response rating [13, 21]: 0 | Wheat plant response rating [13, 24]: 0 | Plant response rating, Wheat [13, 22]: 0 | Wheat plant response rating [13, 23]: 0 | Ducksalad plant response rating [14, 25]: 0 | Ducksalad plant response rating [14, 26]: 0 | Ducksalad plant response rating [14, 27]: 0 | Ducksalad plant response rating [14, 28]: 0 | Rice plant response rating [15, 25]: 0 | Rice plant response rating [15, 26]: 0 | Rice plant response rating [15, 27]: 0 | Rice plant response rating [15, 28]: 0 | Sugarbeets plant response rating [16, 17]: 0 | Sugarbeets plant response rating [16, 18]: 0 | Plant response rating, Sugarbeets [16, 19]: 0 | Sugarbeets plant response rating [16, 20]: 0 | Sugarbeets plant response rating [16, 21]: 0 | Sugarbeets plant response rating [16, 24]: 0 | Plant response rating, Sugarbeets [16, 22]: 0 | Sugarbeets plant response rating [16, 23]: 0
